According to patent US20140031278A1, “Novel Glucagon Analogues” (NOVO NORDISK A/S, priority 2011, published 2014):
*1 amine or outer side, *2 acyl side, *3 side chain or, on linkers, in order; H or OH if unused. Where a SMILES comes first, the peptide text is derived from it. Side-chain parts run from the residue outwards. γGlu = O=C(O)[C@H](CCC(=O)[*:2])N[*:1]

Molecular target: T1, glucagon receptor (Homo sapiens, UniProt P47871)
T1 construct: expressed in transfected cells
Assay: Assay (I) Glucagon activity (cAMP biosensor, FLIPR)
Format: cell-based
Conditions: HEK-293 cells with cloned glucagon receptor and cAMP biosensor; end point after 6 minutes
Method: The glucagon receptor was cloned into HEK-293 cells having a membrane bound cAMP biosensor (ACTOne™). The cells (14000 per well) were incubated (37° C., 5% CO2) overnight in 384-well plates. Next day the cells were loaded with a calcium responsive dye that only distributed into the cytoplasm. Probenecid, an inhibitor of the organic anion transporter, was added to prevent the dye from leaving the cell. A PDE inhibitor was added to prevent formatted cAMP from being degraded, The plates were placed into a […] and the glucagon analogues were added. End point data were collected after 6 minutes. An increase in intracellular cAMP was proportional to an increased in calcium concentrations in the cytoplasm. When calcium was bound the dry a fluorescence signal was generated. EC50-values were calculated in Prism5.

T1 sequence (P47871 26-477): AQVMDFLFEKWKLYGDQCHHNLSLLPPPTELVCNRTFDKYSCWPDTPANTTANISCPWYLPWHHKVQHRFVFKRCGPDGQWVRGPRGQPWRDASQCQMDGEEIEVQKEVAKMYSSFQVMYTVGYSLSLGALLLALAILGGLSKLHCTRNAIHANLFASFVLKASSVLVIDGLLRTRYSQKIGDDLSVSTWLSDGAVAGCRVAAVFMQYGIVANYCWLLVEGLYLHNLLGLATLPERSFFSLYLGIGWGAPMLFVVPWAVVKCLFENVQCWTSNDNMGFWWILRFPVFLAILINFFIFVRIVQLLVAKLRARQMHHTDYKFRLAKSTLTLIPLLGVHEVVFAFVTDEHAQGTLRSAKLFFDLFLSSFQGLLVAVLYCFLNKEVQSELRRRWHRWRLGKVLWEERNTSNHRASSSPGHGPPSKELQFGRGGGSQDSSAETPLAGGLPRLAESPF

EC50 [nM] | Structure (SMILES)
0.0105 | CC(=O)N[C@@H](CCC(=O)N[C@@H](CCC(=O)N[C@@H](CCC(=O)N[C@@H](CCC(=O)NCCCC[C@H](NC(=O)[C@@H](NC(=O)[C@H](Cc1ccccc1)NC(=O)[C@H](CC(=O)O)NC(=O)[C@H](CCC(N)=O)NC(=O)[C@H](C)NC(=O)[C@H](CCCNC(=N)N)NC(=O)[C@H](CCCNC(=N)N)NC(=O)[C@H](CO)NC(=O)[C@H](CC(=O)O)NC(=O)[C@H](CC(C)C)NC(=O)[C@H](Cc1ccc(O)cc1)NC(=O)[C@H](CCCCN)NC(=O)[C@H](CO)NC(=O)[C@H](Cc1ccc(O)cc1)NC(=O)[C@H](CC(=O)O)NC(=O)[C@H](CO)NC(=O)[C@@H](NC(=O)[C@H](Cc1ccccc1)NC(=O)[C@@H](NC(=O)CNC(=O)[C@H](Cc1c[nH]cn1)NC(=O)[C@H](CO)NC(=O)[C@@H](N)Cc1c[nH]cn1)[C@@H](C)O)[C@@H](C)O)C(C)C)C(=O)N[C@@H](Cc1c[nH]c2ccccc12)C(=O)N[C@@H](CC(C)C)C(=O)N[C@@H](CC(C)C)C(=O)N[C@@H](CO)C(=O)N[C@H](C(=O)O)[C@@H](C)O)C(=O)O)C(=O)O)C(=O)O)C(=O)O [Example 3]
0.0145 | CC(=O)N[C@@H](CCC(=O)N[C@@H](CCC(=O)N[C@@H](CCC(=O)N[C@@H](CCC(=O)NCCCC[C@H](NC(=O)[C@@H](NC(=O)[C@H](Cc1ccccc1)NC(=O)[C@H](CC(=O)O)NC(=O)[C@H](C)NC(=O)[C@H](C)NC(=O)[C@H](CCCNC(=N)N)NC(=O)[C@H](CCCNC(=N)N)NC(=O)[C@H](CO)NC(=O)[C@H](CC(=O)O)NC(=O)[C@H](CC(C)C)NC(=O)[C@H](Cc1ccc(O)cc1)NC(=O)[C@H](CCCCN)NC(=O)[C@H](CO)NC(=O)[C@H](Cc1ccc(O)cc1)NC(=O)[C@H](CC(=O)O)NC(=O)[C@H](CO)NC(=O)[C@@H](NC(=O)[C@H](Cc1ccccc1)NC(=O)[C@@H](NC(=O)CNC(=O)[C@H](Cc1c[nH]cn1)NC(=O)[C@H](CO)NC(=O)[C@@H](N)Cc1c[nH]cn1)[C@@H](C)O)[C@@H](C)O)C(C)C)C(=O)N[C@@H](Cc1c[nH]c2ccccc12)C(=O)N[C@@H](CC(C)C)C(=O)N[C@@H](CC(C)C)C(=O)N[C@@H](CO)C(=O)N[C@H](C(=O)O)[C@@H](C)O)C(=O)O)C(=O)O)C(=O)O)C(=O)O [Example 4, N^ε24-[(4S)-4-[[(4S)-4-[[(4S)-4-[[(4S)-4-acetamido-4-carboxybutanoyl]amino]-4-carboxybutanoyl]amino]-4-carboxybutanoyl]amino]-4-carboxybutanoyl]-[His3,Ala20,Lys24,Leu27,Ser28]-Glucagon] (H-HSHGTFTSDYSKYLDSRRAADFVK([γGlu-γGlu-γGlu-γGlu-Ac])WLLST-OH)
0.0563 | CC(C)C[C@H](NC(=O)[C@H](Cc1ccc(O)cc1)NC(=O)[C@H](CCCCN)NC(=O)[C@H](CO)NC(=O)[C@H](Cc1ccc(O)cc1)NC(=O)[C@H](CC(=O)O)NC(=O)[C@H](CO)NC(=O)[C@@H](NC(=O)[C@H](Cc1ccccc1)NC(=O)[C@@H](NC(=O)CNC(=O)[C@H](Cc1c[nH]cn1)NC(=O)[C@H](CO)NC(=O)[C@@H](N)Cc1c[nH]cn1)[C@@H](C)O)[C@@H](C)O)C(=O)N[C@@H](CCC(=O)O)C(=O)N[C@@H](CO)C(=O)N[C@@H](CCCNC(=N)N)C(=O)N[C@@H](CCCNC(=N)N)C(=O)N[C@@H](C)C(=O)N[C@@H](C)C(=O)N[C@@H](CC(=O)O)C(=O)N[C@@H](Cc1ccccc1)C(=O)N[C@H](C(=O)N[C@@H](CCCCNC(=O)CC[C@H](NC(=O)CC[C@H](NC(=O)CC[C@H](NC(=O)CC[C@H](N)C(=O)O)C(=O)O)C(=O)O)C(=O)O)C(=O)N[C@@H](Cc1c[nH]c2ccccc12)C(=O)N[C@@H](CC(C)C)C(=O)N[C@@H](CC(C)C)C(=O)N[C@@H](CO)C(=O)N[C@H](C(=O)O)[C@@H](C)O)C(C)C [Example 5, N^ε24-[(4S)-4-[[(4S)-4-[[(4S)-4-[[(4S)-4-amino-4-carboxybutanoyl]amino]-4-carboxybutanoyl]amino]-4-carboxybutanoyl]amino]-4-carboxybutanoyl]-[His3,Glu15,Ala20,Lys24,Leu27,Ser28]-Glucagon] (H-HSHGTFTSDYSKYLESRRAADFVK([γGlu-γGlu-γGlu-γGlu])WLLST-OH)
0.0795 | CC(C)C[C@H](NC(=O)[C@H](Cc1ccc(O)cc1)NC(=O)[C@H](CCCNC(=N)N)NC(=O)[C@H](CO)NC(=O)[C@H](Cc1ccc(O)cc1)NC(=O)[C@H](CC(=O)O)NC(=O)[C@H](CO)NC(=O)[C@@H](NC(=O)[C@H](Cc1ccccc1)NC(=O)[C@@H](NC(=O)CNC(=O)[C@H](Cc1c[nH]cn1)NC(=O)[C@H](CO)NC(=O)[C@@H](N)Cc1c[nH]cn1)[C@@H](C)O)[C@@H](C)O)C(=O)N[C@@H](CCC(=O)O)C(=O)N[C@@H](CO)C(=O)N[C@@H](CCCNC(=N)N)C(=O)N[C@@H](CCCNC(=N)N)C(=O)N[C@@H](C)C(=O)N[C@@H](C)C(=O)N[C@@H](CC(=O)O)C(=O)N[C@@H](Cc1ccccc1)C(=O)N[C@H](C(=O)N[C@@H](CCCCNC(=O)CC[C@H](NC(=O)CC[C@H](NC(=O)CC[C@H](NC(=O)CC[C@H](N)C(=O)O)C(=O)O)C(=O)O)C(=O)O)C(=O)N[C@@H](Cc1c[nH]c2ccccc12)C(=O)N[C@@H](CC(C)C)C(=O)N[C@@H](CC(C)C)C(=O)N[C@@H](CO)C(=O)N[C@H](C(=O)O)[C@@H](C)O)C(C)C [Example 6, N^ε24-[(4S)-4-[[(4S)-4-[[(4S)-4-[[(4S)-4-amino-4-carboxybutanoyl]amino]-4-carboxybutanoyl]amino]-4-carboxybutanoyl]amino]-4-carboxybutanoyl]-[His3,Arg12,Glu15,Ala20,Lys24,Leu27,Ser28]-Glucagon] (H-HSHGTFTSDYSRYLESRRAADFVK([γGlu-γGlu-γGlu-γGlu])WLLST-OH)
0.0243 | CC(C)C[C@H](NC(=O)[C@H](Cc1c[nH]c2ccccc12)NC(=O)[C@H](CCCCNC(=O)CC[C@H](NC(=O)CC[C@H](NC(=O)CC[C@H](NC(=O)CC[C@H](N)C(=O)O)C(=O)O)C(=O)O)C(=O)O)NC(=O)[C@@H](NC(=O)[C@H](Cc1ccccc1)NC(=O)[C@H](CC(=O)O)NC(=O)[C@H](C)NC(=O)[C@H](C)NC(=O)[C@H](CCCNC(=N)N)NC(=O)[C@H](CCCNC(=N)N)NC(=O)[C@@H](NC(=O)[C@H](CC(=O)O)NC(=O)[C@H](CC(C)C)NC(=O)[C@H](Cc1ccc(O)cc1)NC(=O)[C@H](CCCCN)NC(=O)[C@H](CO)NC(=O)[C@H](Cc1ccc(O)cc1)NC(=O)[C@H](CC(=O)O)NC(=O)[C@H](CO)NC(=O)[C@@H](NC(=O)[C@H](Cc1ccccc1)NC(=O)[C@@H](NC(=O)CNC(=O)[C@H](Cc1c[nH]cn1)NC(=O)[C@H](CO)NC(=O)[C@@H](N)Cc1c[nH]cn1)[C@@H](C)O)[C@@H](C)O)[C@@H](C)O)C(C)C)C(=O)N[C@@H](CC(C)C)C(=O)N[C@@H](CO)C(=O)N[C@H](C(=O)O)[C@@H](C)O [Example 7, N^ε24-[(4S)-4-[[(4S)-4-[[(4S)-4-[[(4S)-4-amino-4-carboxybutanoyl]amino]-4-carboxybutanoyl]amino]-4-carboxybutanoyl]amino]-4-carboxybutanoyl]-[His3,Thr16,Ala20,Lys24,Leu27,Ser28]-Glucagon] (H-HSHGTFTSDYSKYLDTRRAADFVK([γGlu-γGlu-γGlu-γGlu])WLLST-OH)
